Results published in ChEMBL document CHEMBL4402592, “Targeting Endoplasmic Reticulum α-Glucosidase I with a Single-Dose Iminosugar Treatment Protects against Lethal Influenza and Dengue Virus Infections” (J Med Chem, 2020).
The source made the active and inactive calls. The calls are words filed in the database; no cut-off is given here.

System: Influenza A virus
Assay: Antiviral activity against Influenza A virus (A/PA/10/2010 (H3N2)) infected in BALB/c mouse assessed as increase in animal survival rate at 10 mg/kg, po administered via gavage starting at 8 hrs post infection and continuing BID for 6 days
Format: functional, organism-based

CCOC(=O)C1=C[C@@H](OC(CC)CC)[C@H](NC(C)=O)[C@@H](N)C1
Activity: Active
